From patent US11352340B2, “Pyridine and pyridimine compounds as PI3K-gamma inhibitors” (Incyte Corporation, priority 2016, dated 2022) come the findings set out here.

Where a name gives a salt, the structure may show the parent alone. Where only a bound is given, the exact number is not on record here.

Assay [1] concerns the target PI3Kγ (p110γ) Recombinant Human Protein (Homo sapiens (Human), UniProt P48736). The assay is described as follows: PI3K-γ Scintillation Proximity Assay. Type of assay: biochemical. The note with it: read-out: PI3K-gamma SPA IC50. The text has this:
Example B. PI3K-γ Scintillation Proximity Assay
[γ-^33P]ATP (10 mCi/mL) and Wheat Germ Agglutinin (WGA) YSi SPA Scintillation Beads was purchased from Perkin-Elmer (Waltham, Mass.). Lipid kinase substrate, D-myo-Phosphatidylinositol 4,5-bisphosphate (PtdIns(4,5)P2)D (+)-sn-1,2-di-O-octanoylglyceryl, 3-O-phospho linked (PIP2), CAS 204858-53-7, was purchased from Echelon Biosciences (Salt Lake City, Utah). PI3Kγ (p110γ) Recombinant Human Protein was purchased from Life technology (Grand Island, N.Y.). ATP, MgCl2, DTT, EDTA, MOPS and CHAPS were purchased from Sigma-Aldrich (St. Louis, Mo.).
(§1) The kinase reaction was conducted in polystyrene 384-well Greiner Bio-one white plate from Thermo Fisher Scientific in a final volume of 25 μL. Inhibitors were first diluted serially in DMSO and added to the plate wells before the addition of other reaction components. The final concentration of DMSO in the assay was 2%. The PI3Kγ assay was carried out at room temperature in 20 mM MOPS, pH 6.7, 10 mM MgCl2, 5 mM DTT and CHAPS 0.03%. Reactions were initiated by the addition of ATP, the final reaction mixture consisted of 20 μM PIP2, 2 μM ATP, 0.5 μCi [γ-^33P] ATP, 13 nM PI3Kγ. Reactions were incubated for 120 min and terminated by the addition of 40 μL SPA beads suspended in quench buffer: 163 mM potassium phosphate pH 7.8, 20% glycerol, 25 mM EDTA. The final concentration of SPA beads is 1.0 mg/mL. After the plate sealing, plates were shaken overnight at room temperature and centrifuged at 1500 rpm for 10 min, the radioactivity of the product was determined by scintillation counting on Topcount (Perkin-Elmer). IC50 determination was performed by fitting the curve of percent of the solvent control activity versus the log of the inhibitor concentration using the GraphPad Prism 6.0 software.

The target in assay [2] is PI3Kδ (p110δ/p85α) Recombinant Human Protein (Homo sapiens (Human), UniProt O00329). Put plainly: PI3Kδ Scintillation Proximity Assay. In kind it is biochemical. The note with it: read-out: PI3K-delta SPA IC50.
PI3Kδ (p110δ/p85α) Recombinant Human Protein, sequence (O00329 whole entry): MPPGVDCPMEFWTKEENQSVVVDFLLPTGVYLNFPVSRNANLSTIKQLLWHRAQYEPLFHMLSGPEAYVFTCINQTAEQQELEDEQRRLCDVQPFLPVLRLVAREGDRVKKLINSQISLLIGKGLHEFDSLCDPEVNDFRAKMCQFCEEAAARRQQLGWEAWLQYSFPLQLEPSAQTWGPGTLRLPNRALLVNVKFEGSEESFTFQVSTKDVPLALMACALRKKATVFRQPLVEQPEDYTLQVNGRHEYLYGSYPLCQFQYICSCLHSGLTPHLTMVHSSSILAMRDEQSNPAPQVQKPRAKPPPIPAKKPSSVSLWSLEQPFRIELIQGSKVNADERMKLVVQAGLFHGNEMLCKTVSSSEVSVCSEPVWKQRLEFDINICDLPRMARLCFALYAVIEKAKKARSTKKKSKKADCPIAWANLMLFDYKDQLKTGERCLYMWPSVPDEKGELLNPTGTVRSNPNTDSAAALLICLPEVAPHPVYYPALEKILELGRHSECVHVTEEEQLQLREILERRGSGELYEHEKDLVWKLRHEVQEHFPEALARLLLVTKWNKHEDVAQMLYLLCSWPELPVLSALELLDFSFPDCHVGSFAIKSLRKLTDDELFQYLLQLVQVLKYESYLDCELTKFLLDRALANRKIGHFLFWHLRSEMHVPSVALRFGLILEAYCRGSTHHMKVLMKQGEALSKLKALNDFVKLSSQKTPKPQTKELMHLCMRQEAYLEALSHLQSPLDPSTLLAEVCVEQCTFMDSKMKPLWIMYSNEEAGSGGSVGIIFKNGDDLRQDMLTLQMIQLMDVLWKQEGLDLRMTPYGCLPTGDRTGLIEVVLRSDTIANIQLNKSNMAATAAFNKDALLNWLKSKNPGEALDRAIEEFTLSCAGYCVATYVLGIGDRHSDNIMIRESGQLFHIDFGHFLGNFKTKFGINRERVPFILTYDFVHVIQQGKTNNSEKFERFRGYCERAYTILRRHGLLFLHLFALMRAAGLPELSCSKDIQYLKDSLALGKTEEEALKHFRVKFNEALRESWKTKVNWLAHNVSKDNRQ
PI3Kδ (p110δ/p85α) Recombinant Human Protein, sequence (P27986 whole entry partner): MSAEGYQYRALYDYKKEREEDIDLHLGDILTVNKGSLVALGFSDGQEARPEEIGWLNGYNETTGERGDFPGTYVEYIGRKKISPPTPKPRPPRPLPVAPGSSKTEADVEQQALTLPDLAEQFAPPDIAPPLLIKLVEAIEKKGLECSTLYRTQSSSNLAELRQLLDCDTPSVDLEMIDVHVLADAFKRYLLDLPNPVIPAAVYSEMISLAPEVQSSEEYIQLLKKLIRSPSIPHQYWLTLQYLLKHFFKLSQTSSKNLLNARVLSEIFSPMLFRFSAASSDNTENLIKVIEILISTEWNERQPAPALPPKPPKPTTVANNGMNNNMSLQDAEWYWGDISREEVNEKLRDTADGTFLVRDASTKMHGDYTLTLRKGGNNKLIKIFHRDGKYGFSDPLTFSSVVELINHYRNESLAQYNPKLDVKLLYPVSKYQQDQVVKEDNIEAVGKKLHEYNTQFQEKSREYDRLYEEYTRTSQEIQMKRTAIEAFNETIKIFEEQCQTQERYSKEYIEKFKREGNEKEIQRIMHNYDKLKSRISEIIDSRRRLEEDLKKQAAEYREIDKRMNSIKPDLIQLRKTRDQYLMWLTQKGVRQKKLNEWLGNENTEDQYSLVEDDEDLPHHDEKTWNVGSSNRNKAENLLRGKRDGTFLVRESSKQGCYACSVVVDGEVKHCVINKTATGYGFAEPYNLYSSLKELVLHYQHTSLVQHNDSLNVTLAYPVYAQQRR
From the text: Example C. PI3Kδ Scintillation Proximity Assay
[γ-^33P]ATP (10 mCi/mL) and Wheat Germ Agglutinin (WGA) YSi SPA Scintillation Beads was purchased from Perkin-Elmer (Waltham, Mass.). Lipid kinase substrate, D-myo-Phosphatidylinositol 4,5-bisphosphate (PtdIns(4,5)P2)D (+)-sn-1,2-di-O-octanoylglyceryl, 3-O-phospho linked (PIP2), CAS 204858-53-7, was purchased from Echelon Biosciences (Salt Lake City, Utah). PI3Kδ (p110δ/p85α) Recombinant Human Protein was purchased from Eurofins (St Charles, Mo.). ATP, MgCl2, DTT, EDTA, MOPS and CHAPS were purchased from Sigma-Aldrich (St. Louis, Mo.).
as §1, with “PI3Kδ” for “PI3Kγ”, “3.4” for “13”, “PI3Kδ.” for “PI3Kγ.”

PI3Kγ (p110γ) Recombinant Human Protein, sequence (P48736 whole entry): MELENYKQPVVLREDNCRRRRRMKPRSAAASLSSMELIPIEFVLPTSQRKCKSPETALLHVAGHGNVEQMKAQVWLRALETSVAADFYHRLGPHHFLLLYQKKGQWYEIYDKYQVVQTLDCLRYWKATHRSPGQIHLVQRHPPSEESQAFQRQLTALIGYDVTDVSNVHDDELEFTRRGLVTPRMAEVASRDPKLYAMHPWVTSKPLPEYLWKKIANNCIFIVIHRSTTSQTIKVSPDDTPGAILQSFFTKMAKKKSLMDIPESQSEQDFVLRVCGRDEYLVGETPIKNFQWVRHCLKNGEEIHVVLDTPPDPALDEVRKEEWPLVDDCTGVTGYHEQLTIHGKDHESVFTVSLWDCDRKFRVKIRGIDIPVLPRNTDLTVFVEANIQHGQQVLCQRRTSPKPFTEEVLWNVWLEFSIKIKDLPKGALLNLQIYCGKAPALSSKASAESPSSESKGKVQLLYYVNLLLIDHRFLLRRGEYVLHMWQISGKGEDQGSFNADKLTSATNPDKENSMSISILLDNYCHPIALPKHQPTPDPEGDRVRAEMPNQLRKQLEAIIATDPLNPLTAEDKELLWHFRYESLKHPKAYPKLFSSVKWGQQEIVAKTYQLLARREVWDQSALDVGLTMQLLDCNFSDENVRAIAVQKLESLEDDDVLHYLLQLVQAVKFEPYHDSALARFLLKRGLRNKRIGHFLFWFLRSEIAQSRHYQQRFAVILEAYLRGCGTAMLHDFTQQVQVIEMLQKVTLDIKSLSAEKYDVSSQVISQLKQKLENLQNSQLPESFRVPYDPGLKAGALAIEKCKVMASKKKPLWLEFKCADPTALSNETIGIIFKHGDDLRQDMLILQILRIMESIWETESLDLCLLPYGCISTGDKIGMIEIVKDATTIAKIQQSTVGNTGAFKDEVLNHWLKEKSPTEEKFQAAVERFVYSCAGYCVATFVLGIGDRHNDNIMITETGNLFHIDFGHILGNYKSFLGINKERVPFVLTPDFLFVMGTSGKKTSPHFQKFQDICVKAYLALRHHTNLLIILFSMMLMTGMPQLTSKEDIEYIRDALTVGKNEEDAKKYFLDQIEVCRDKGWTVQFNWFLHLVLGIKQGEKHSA

Take `COc1cncc(-c2ccnc(-c3cnc(NCC(C)C)[nH]3)c2)c1` [Example 64, N-Isobutyl-5-(5-methoxy-3,4′-bipyridin-2′-yl)-1H-imidazol-2-amine trifluoroacetate salt]: the IC50 was no more than 500 nM in assay [1] and greater than 500 nM in assay [2].

`COc1cncc(-c2ccnc(-c3nnc[nH]3)c2)c1` [Example 72, 5-Methoxy-2′-(4H-1,2,4-triazol-3-yl)-3,4′-bipyridine]: the IC50 in assay [1] and in assay [2] was greater than 500 nM in each case.

Take `COc1cncc(-c2ccnc(-c3nnc(C)[nH]3)c2)c1` [Example 73, 5-Methoxy-2′-(5-methyl-4H-1,2,4-triazol-3-yl)-3,4′-bipyridine]: the IC50 in assay [1] and in assay [2] was greater than 500 nM throughout.

Consider `COc1cncc(-c2ccnc(-c3nc(C)c(NC(C)=O)[nH]3)c2)c1` [Example 75, N-[2-(5-Methoxy-3,4′-bipyridin-2′-yl)-4-methyl-1H-imidazol-5-yl]acetamide], for which the IC50 in assay [1] and in assay [2] was greater than 500 nM each time.

On to `COc1cncc(-c2ccnc(-c3nc4c([nH]3)CCC4)c2)c1` [Example 78, 2-(5-Methoxy-3,4′-bipyridin-2′-yl)-1,4,5,6-tetrahydrocyclopenta[d]imidazole], for which the IC50 in assay [1] and in assay [2] was no more than 500 nM each time.

`CCOC(=O)c1nc(-c2cc(-c3cncc(OC)c3)ccn2)[nH]c1C(F)(F)F` [Example 80, Ethyl 2-(5-methoxy-3,4′-bipyridin-2′-yl)-5-(trifluoromethyl)-1H-imidazole-4-carboxylate]: the IC50 in assay [1] and in assay [2] was greater than 500 nM in each case.

Consider `COc1cncc(-c2ccnc(-c3nc(C(=O)O)c(C(F)(F)F)[nH]3)c2)c1` [Example 81, 2-(5-Methoxy-3,4′-bipyridin-2′-yl)-5-(trifluoromethyl)-1H-imidazole-4-carboxylic acid trifluoroacetate salt], for which the IC50 in assay [1] and in assay [2] was greater than 500 nM throughout.

As to `COc1cncc(-c2cc(-c3nc4ccccc4[nH]3)ncn2)c1` [Example 95, trifluoroacetate salt], the IC50 in assay [1] and in assay [2] was greater than 500 nM in each case.

As for `CCc1cnc(-c2cc(-c3cncc(N4CCOCC4)c3)ccn2)[nH]1` [Example 100, 4-(2′-(5-Ethyl-1H-imidazol-2-yl)-3,4′-bipyridin-5-yl)morpholine trifluoroacetate salt], the IC50 in assay [1] and in assay [2] was no more than 500 nM throughout.

With `CC(C)c1cnc(-c2cc(-c3cncc(N4CCOCC4)c3)ccn2)[nH]1` [Example 101, 4-(2′-(5-Isopropyl-1H-imidazol-2-yl)-3,4′-bipyridin-5-yl)morpholine trifluoroacetate salt], the IC50 in assay [1] and in assay [2] was no more than 500 nM each time.

`CC(C)(C)OC(=O)Nc1cncc(-c2ccnc(-c3ncc(-c4ccccc4)[nH]3)c2)c1` [Example 126, tert-Butyl [2′-(5-phenyl-1H-imidazol-2-yl)-3,4′-bipyridin-5-yl]carbamate]: the IC50 in assay [1] and in assay [2] was no more than 500 nM throughout.

Consider `Cc1nc(-c2cc(-c3cncc(NC(=O)OC(C)(C)C)c3)ccn2)[nH]c1C` [Example 128, tert-Butyl [2′-(4,5-dimethyl-1H-imidazol-2-yl)-3,4′-bipyridin-5-yl]carbamate], for which the IC50 in assay [1] and in assay [2] was no more than 500 nM throughout.

With `Cc1nc(-c2cc(-c3cncc(N)c3)ccn2)[nH]c1C` [Example 129, 2′-(4,5-Dimethyl-1H-imidazol-2-yl)-3,4′-bipyridin-5-amine], the IC50 was no more than 100 nM in assay [1] and no more than 500 nM in assay [2].

For the compound `O=C(Nc1cncc(-c2ccnc(-c3ncc(-c4ccccc4)[nH]3)c2)c1)c1ccccc1` [Example 132, N-(2′-(5-Phenyl-1H-imidazol-2-yl)-3,4′-bipyridin-5-yl)benzamide], the IC50 in assay [1] and in assay [2] was no more than 500 nM each time.

In the case of `O=C(Nc1cncc(-c2ccnc(-c3ncc(-c4ccccc4)[nH]3)c2)c1)c1ccccc1Cl` [Example 133, 2-Chloro-N-(2′-(5-phenyl-1H-imidazol-2-yl)-3,4′-bipyridin-5-yl)benzamide], the IC50 in assay [1] is no more than 500 nM; in assay [2], no more than 100 nM.

On to `O=C(Nc1cncc(-c2ccnc(-c3ncc(-c4ccccc4)[nH]3)c2)c1)c1cccc(Cl)c1` [Example 134, 3-Chloro-N-(2′-(5-phenyl-1H-imidazol-2-yl)-3,4′-bipyridin-5-yl)benzamide], for which the IC50 in assay [1] and in assay [2] was greater than 500 nM throughout.

As for `O=C(Nc1cncc(-c2ccnc(-c3ncc(-c4ccccc4)[nH]3)c2)c1)c1ccc(Cl)cc1` [Example 135, 4-Chloro-N-(2′-(5-phenyl-1H-imidazol-2-yl)-3,4′-bipyridin-5-yl)benzamide], the figures for the IC50 in assay [1] and in assay [2] were greater than 500 nM and no more than 500 nM, respectively.

Regarding `N#Cc1cccc(C(=O)Nc2cncc(-c3ccnc(-c4ncc(-c5ccccc5)[nH]4)c3)c2)c1` [Example 136, 3-Cyano-N-(2′-(5-phenyl-1H-imidazol-2-yl)-3,4′-bipyridin-5-yl)benzamide], the IC50 in assay [1] and in assay [2] was no more than 500 nM throughout.

Take `N#Cc1ccc(C(=O)Nc2cncc(-c3ccnc(-c4ncc(-c5ccccc5)[nH]4)c3)c2)cc1` [Example 137, 4-Cyano-N-(2′-(5-phenyl-1H-imidazol-2-yl)-3,4′-bipyridin-5-yl)benzamide]: the IC50 in assay [1] and in assay [2] was no more than 500 nM in each case.

For `CCNC(=O)Nc1cncc(-c2ccnc(-c3ncc(-c4ccccc4)[nH]3)c2)c1` [Example 139, N-Ethyl-N′-[2′-(5-phenyl-1H-imidazol-2-yl)-3,4′-bipyridin-5-yl]urea Trifluoroacetate Salt], the IC50 in assay [1] is no more than 500 nM; in assay [2], no more than 100 nM.

Regarding `CCOC(=O)Nc1cncc(-c2ccnc(-c3ncc(-c4ccccc4)[nH]3)c2)c1` [Example 140, Ethyl 2′-(5-phenyl-1H-imidazol-2-yl)-3,4′-bipyridin-5-ylcarbamate Trifluoroacetate Salt], the IC50 in assay [1] is no more than 100 nM; in assay [2] it was no more than 50 nM.

Regarding `CN1CCC(Nc2cncc(-c3ccnc(-c4ncc(-c5ccccc5)[nH]4)c3)c2)CC1` [Example 143, N-(1-Methylpiperidin-4-yl)-2′-(5-phenyl-1H-imidazol-2-yl)-3,4′-bipyridin-5-amine trifluoroacetate salt], the IC50 in assay [1] and in assay [2] was no more than 100 nM throughout.

With `CN1CCC(CNc2cncc(-c3ccnc(-c4ncc(-c5ccccc5)[nH]4)c3)c2)CC1` [Example 144, N-((1-Methylpiperidin-4-yl)methyl)-2′-(5-phenyl-1H-imidazol-2-yl)-3,4′-bipyridin-5-amine trifluoroacetate salt], the IC50 in assay [1] and in assay [2] was no more than 100 nM throughout.

In the case of `Cc1nc(-c2cc(-c3cncc(NCC4CCOCC4)c3)ccn2)[nH]c1C` [Example 145, 2′-(4,5-Dimethyl-1H-imidazol-2-yl)-N-(tetrahydro-2H-pyran-4-ylmethyl)-3,4′-bipyridin-5-amine], the IC50 in assay [1] was no more than 50 nM; in assay [2], no more than 500 nM.

In the case of `Cc1nc(-c2cc(-c3cncc(C(=O)N4CCN(C)CC4)c3)ccn2)[nH]c1C` [Example 147, (2′-(4,5-Dimethyl-1H-imidazol-2-yl)-3,4′-bipyridin-5-yl)(4-methylpiperazin-1-yl)methanone], the IC50 in assay [1] and in assay [2] was no more than 500 nM each time.
